Laboratory results reported in patent US5395828A, “Inositol phosphate analogues as calcium-antagonistic substances” (Hoechst Aktiengesellschaft, priority 1991, dated 1995).

Tested on: human platelets
Test: Calcium release in saponin-permeabilized human platelets (Quin2 fluorescence)
Type: cell-based
Conditions: Platelet, pH 7.4, increase in Quin2-fluorescence, read-out: EC50 (effective concentration), release of Calcium
Procedure: Human platelets were purified in the presence of citrate by differential centrifugation and resuspended to ca 1×10exp9 cells/ml in Tyrode-HEPES-(N-2-hydroxyethyl-piperazine-N'-2 ethane-sulfonic acid)-buffer pH 7.4 containing 0.2% w/v Bovine Serum Albumin and 1 mM EGTA (Ethylene Glycol Bis (β-Aminoethyl Ether)N,N,N',N'-Tetraacidic acid). After 20 min, the platelets were centrifuged again (700×g, 20 min) and resuspended to the same concentration in 4 ml of "assay-buffer" containing:
1.2 mM Potassiumdihydrogenphosphate
25 mM HEPES-buffer, pH as indicated
After a further 30 min, the platelet suspension was diluted 5-fold into assay-buffer containing 2 μM Quin2 (2-[[2-[bis(carboxymethyl)amino]-5-methyl-phenoxy]methyl]-6-methoxy-8-[bis[…]]quinoline) salt as a fluorescence indicator for Calcium. To this suspension Saponin was added to a final concentration of 20 μg/ml to permeabilize the cells. The fluorescence of the suspension was continually monitored with a fluorescence spectrometer until a stable baseline was achieved. At this point, IP3 was added and the resulting release of Calcium measured as an increase in the intensity of the Quin2-fluorescence. An EC50 (effective concentration) value of 2×10exp-7M was obtained at pH 7.4. IP2-5-MP itself had no effect on release of Calcium. […]

EC50: 200 nM
SMILES: O=P(O)(O)O[C@@H]1[C@H](O)[C@H](O)[C@@H](OP(=O)(O)O)[C@H](OP(=O)(O)O)[C@H]1O [IP3, d-myo inositol(1.4.5)trisphosphate]
